# Measurements taken from patent US10590118B2, “Bicyclic heterocyclic derivatives as bromodomain inhibitors” (Orion Corporation, priority 2014, dated 2020).
# Structures can show the parent of a compound that is named as a salt.
# Target: T1, Bet bromodomain protein (BRD4) (Homo sapiens, UniProt O60885)
# T1 construct: made in house
# Test: Bet bromodomain TR-FRET assay
# Type: binding
# Conditions: 300 nM acetyl histone peptide substrate, results given as Group A/B/C
# How it was run: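 In-house BRD4 protein with 300 nM acetyl histone peptide in 50 mM HEPES pH 7.5, 50 mM NaCl, 500 μM CHAPS; 30 min RT, then serially diluted compound for 30 min RT. Eu-streptavidin (2 nM) and XL-665 antibody (10 nM) added for 30 min; 665/615 nm ratio read, IC50 from sigmoid dose-response fit.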
row,SMILES,IC50 [nM]
1,COc1cc2c(cc1-c1c(C)noc1C)OCC(=O)N2Cc1ccc(O)nc1 [Compound 70],> 3000
2,"COc1cc2c(ccc(=O)n2Cc2ccccn2)cc1C1=C(C)C(=O)NC1=O [Compound 92, 3-(7-methoxy-2-oxo-1-(pyridin-2-ylmethyl)-1,2-dihydroquinolin-6-yl)-4-methyl-1H-pyrrole-2,5-dione]",> 3000
3,"COc1cc2c(cc1-c1c(C)n[nH]c1C)OCC(=O)N2Cc1ccc(Cl)cc1 [Compound 65, 4-(4-chlorobenzyl)-7-(3,5-dimethyl-1H-pyrazol-4-yl)-6-methoxy-2H-benzo[b][1,4]oxazin-3(4H)-one]",≤ 1000
4,"COc1cc2c(cc1-c1c(C)noc1C)OCC(=O)N2CC1CCNCC1 [Compound 60, 7-(3,5-dimethylisoxazol-4-yl)-6-methoxy-4-(piperidin-4-ylmethyl)-2H-benzo[b][1,4]oxazin-3(4H)-one]",> 3000
5,"Cc1noc(C)c1-c1cc2ccc(=O)n(Cc3ccccn3)c2cc1OCCC1CCNC1 (centres unmarked) [Compound 89, 6-(3,5-dimethylisoxazol-4-yl)-1-(pyridin-2-ylmethyl)-7-(2-(pyrrolidin-3-yl)ethoxy)quinolin-2(1H)-one hydrochloride]",≤ 1000
6,"COc1cc2c(ccc(=O)n2CCN2CCOCC2)cc1-c1c(C)noc1C [Compound 38, 6-(3,5-dimethylisoxazol-4-yl)-7-methoxy-1-(2-morpholinoethyl)quinolin-2(1H)-one]",≤ 1000
7,"COc1cc2c(cc1-c1c(C)noc1C)C(C)(C)CC(=O)N2Cc1ccccn1 [Compound 48, 6-(3,5-dimethylisoxazol-4-yl)-7-methoxy-4,4-dimethyl-1-(pyridin-2-ylmethyl)-3,4-dihydroquinolin-2(1H)-one]",> 3000
8,"COc1cc2c(cc1-c1c(C)noc1C)OC(C)(C)C(=O)N2Cc1cccnc1 [Compound 49, 7-(3,5-dimethylisoxazol-4-yl)-6-methoxy-2,2-dimethyl-4-(pyridin-3-ylmethyl)-2H-benzo[b][1,4]oxazin-3(4H)-one]",≤ 1000
9,"Cc1noc(C)c1-c1cc2ccc(=O)n(Cc3ccccn3)c2cc1OC(F)(F)F [Compound 85, 6-(3,5-dimethylisoxazol-4-yl)-1-(pyridin-2-ylmethyl)-7-(trifluoromethoxy)quinolin-2(1H)-one]",1000 to 3000
10,"COc1cc2c(ccc(=O)n2Cc2ccccn2)cc1-c1c(C2CC2)noc1C [Compound 62, 6-(3-cyclopropyl-5-methylisoxazol-4-yl)-7-methoxy-1-(pyridin-2-ylmethyl)quinolin-2(1H)-one]",≤ 1000
11,"Cc1noc(C)c1-c1cc2ccc(=O)n(Cc3ccccn3)c2cc1O [Compound 72, 6-(3,5-dimethylisoxazol-4-yl)-7-hydroxy-1-(pyridin-2-ylmethyl)quinolin-2(1H)-one]",≤ 1000
12,"COc1cc2c(ccc(=O)n2C(C)c2cccnc2)cc1-c1c(C)noc1C (centres unmarked) [Compound 41, 6-(3,5-dimethylisoxazol-4-yl)-7-methoxy-1-(1-(pyridin-3-yl)ethyl)quinolin-2(1H)-one]",≤ 1000
13,"COc1cc2c(cc1-c1c(C)noc1C)CC(C)(C)C(=O)N2Cc1ccccn1 [Compound 52, 6-(3,5-dimethytisoxazol-4-yl)-7-methoxy-3,3-dimethyl-1-(pyridin-2-ylmethyl)-3,4-dihydroquinolin-2(1H)-one]",> 3000
14,"COc1cc2c(ccc(=O)n2Cc2ccc(F)cn2)cc1-c1c(C)noc1C [Compound 45, 6-(3,5-dimethylisoxazol-4-yl)-1-((5-fluoropyridin-2-yl)methyl)-7-methoxyquinolin-2(1H)-one]",≤ 1000
15,"COc1cc2c(ccc(=O)n2Cc2ncccc2F)cc1-c1c(C)noc1C [Compound 9, 6-(3,5-dimethylisoxazol-4-yl)-1-((3-fluoropyridin-2-yl)methyl)-7-methoxyquinolin-2(1H)-one]",≤ 1000
16,"COc1cc2c(cc1Nc1c(C)noc1C)OCC(=O)N2Cc1ccc(Cl)cc1 [Compound 95, 4-(4-chlorobenzyl)-7-((3,5-dimethylisoxazol-4-yl)amino)-6-methoxy-2H-benzo[b][1,4]oxazin-3(4H)-one]",> 3000

row,SMILES,IC50 [nM]
1,"Cc1noc(C)c1-c1cc2ccc(=O)n(Cc3ccccn3)c2cc1OC1CCNCC1 [Compound 86, 6-(3,5-dimethylisoxazol-4-yl)-7-(piperidin-4-yloxy)-1-(pyridin-2-ylmethyl)quinolin-2(1H)-one]",> 3000
2,"COc1cc2c(cc1-c1c(C)noc1C)OCC(=O)N2C(C)c1ccncc1 (single isomer, unassigned) [Compound 20, 7-(3,5-dimethylisoxazol-4-yl)-6-methoxy-4-(1-(pyridin-4-yl)ethyl)-2H-benzo[b][1,4]oxazin-3(4H)-one]",≤ 1000
3,"COc1cc2c(cc1-c1c(C)noc1C)OCCN2C(C)c1cccnc1 (centres unmarked) [Compound 7, 7-(3,5-dimethylisoxazol-4-yl)-6-methoxy-4-(1-(pyridin-3-yl)ethyl)-3,4-dihydro-2H-benzo[b][1,4]oxazine]",≤ 1000
4,"C=CCOc1cc2c(ccc(=O)n2Cc2ccccn2)cc1-c1c(C)noc1C [Compound 79, 7-(allyloxy)-6-(3,5-dimethylisoxazol-4-yl)-1-(pyridin-2-ylmethyl)quinolin-2(1H)-one]",≤ 1000
5,"COc1cc2c(cc1-c1c(C)noc1C)cc(C)c(=O)n2CCc1ccc(Cl)cc1 [Compound 59, 1-(4-chlorophenethyl)-6-(3,5-dimethylisoxazol-4-yl)-7-methoxy-3-methylquinolin-2(1H)-one]",≤ 1000
6,"COc1cc2c(ccc(=O)n2Cc2ccc(Cl)cc2)cc1-c1c(C)noc1C [Compound 56, 1-(4-chlorobenzyl)-6-(3,5-dimethylisoxazol-4-yl)-7-methoxyquinolin-2(1H)-one]",≤ 1000
7,"COc1cc2c(ccc(=O)n2Cc2ccc(Cl)nc2)cc1-c1c(C)noc1C [Compound 67, 1-((6-chloropyridin-3-yl)methyl)-6-(3,5-dimethylisoxazol-4-yl)-7-methoxyquinolin-2(1H)-one]",≤ 1000
8,"COc1cc2c(ccc(=O)n2Cc2ccccn2)cc1-c1c(C)n[nH]c1C [Compound 66, 6-(3,5-dimethyl-1H-pyrazol-4-yl)-7-methoxy-1-(pyridin-2-ylmethyl)quinolin-2(1H)-one]",≤ 1000
9,"COc1cc2c(cc1-c1c(C)noc1C)cc(C(O)C(F)(F)F)c(=O)n2Cc1ccccn1 (single isomer, unassigned) [Compound 102, 6-(3,5-dimethylisoxazol-4-yl)-7-methoxy-1-(pyridin-2-ylmethyl)-3-(2,2,2-trifluoro-1-hydroxyethyl)quinolin-2(1H)-one]",≤ 1000
10,"COc1cc2c(cc1-c1c(C)noc1C)OCC(=O)N2C(C)c1ccncc1 (single isomer, unassigned) [Compound 19, 7-(3,5-dimethylisoxazol-4-yl)-6-methoxy-4-(1-(pyridin-4-yl)ethyl)-2H-benzo[b][1,4]oxazin-3(4H)-one]",> 3000
11,"COc1cc2c(ccc(=O)n2Cc2cnccn2)cc1-c1c(C)noc1C [Compound 8, 6-(3,5-dimethylisoxazol-4-yl)-7-methoxy-1-(pyrazin-3-ylmethyl)quinolin-2(1H)-one]",≤ 1000
12,"Cc1noc(C)c1-c1cc2ccc(=O)n(Cc3ccc(Cl)cn3)c2cc1O [Compound 73, 1-((5-chloropyridin-2-yl)methyl)-6-(3,5-dimethylisoxazol-4-yl)-7-hydroxyquinolin-2(1H)-one]",≤ 1000
13,"COc1cc2c(cc1-c1c(C)noc1C)c(C)cc(=O)n2Cc1ccccn1 [Compound 53, 6-(3,5-dimethylisoxazol-4-yl)-7-methoxy-4-methyl-1-(pyridin-2-ylmethyl)quinolin-2(1H)-one]",1000 to 3000
14,"COc1cc2c(cc1-c1c(C)noc1C)OCCN2C(C)c1ccc(Cl)cc1 (centres unmarked) [Compound 6, 4-(1-(4-chlorophenyl)ethyl)-7-(3,5-dimethylisoxazol-4-yl)-6-methoxy-3,4-dihydro-2H-benzo[b][1,4]oxazine]",> 3000
15,"COc1ccc(Cn2c(=O)ccc3cc(-c4c(C)noc4C)c(OC)cc32)nc1 [Compound 2, 6-(3,5-dimethytisoxazol-4-yl)-7-methoxy-1-((5-methoxypyridin-2-yl)methyl)quinolin-2(1H)-one]",≤ 1000
16,"COc1cc2c(cc1-c1c(C)noc1C)c(C#N)c(C)c(=O)n2CCc1ccc(Cl)cc1 [Compound 105, 1-(4-chlorophenethyl)-6-(3,5-dimethylisoxazol-4-yl)-7-methoxy-3-methyl-2-oxo-1,2-dihydroquinoline-4-carbonitrile]",> 3000
